Measurements taken from US7772255B2, “Method of treating tumors with azaxanthones” (Supratek Pharma, Inc., priority 2005, dated 2010).

Experiments:
[1] = Chemical stability of Amlexanox sodium salt solution (HPLC); type: physicochemical; conditions: 20 mg Amlexanox sodium salt in 2 mL Tris buffer pH 7.2; 0.05 molar equivalent of the listed compound; 72 hours, ambient light, access to air; HPLC peak area
Protocol: 20 mg of crystalline Amlexanox sodium salt was dissolved in a clear glass test tube in 2 mL of Tris buffer, pH 7.2. For each of the stabilizing compounds listed in the Table below, 0.05 molar equivalent of the compound was added to the solution, mixed until dissolved, and left under ambient light, and with access to the air. Concentration of Amlexanox in the sample was determined by HPLC right after preparation, and after 72 hours. The chemical stability of Amlexanox was evaluated by comparison of area under the peak of amlexanox from the two analyses.

CSML100 cells = assay: S100A4-positive lung metastasis tumor model, alone or in combinations (Example 25); type: in vivo, mouse; conditions: CSML100 i.v. in A/J mice, mean±SEM
Protocol: Amlexanox solution for injections was prepared according to the Example 4. […] The animals were then divided randomly into 9 groups (n=9 except for control group): 1) intact control (n=13, saline); 2) Amlexanox (i.v. 100 mg/kg); 3) Amlexanox ([…]. 3 mg/kg); 5) Amlexanox ([…]. […] 10 mg/kg). […] The treatments were started on the day following the tumor cell implantation and continued for 10 consecutive days. […] The animal body weight was recorded as an index of treatment toxicity during the experiment. […] The data are expressed as mean±SEM for the number of metastatic sites on the lung surface.

B16F10/DX cells = assay: B16 experimental metastasis model (Example 26); type: in vivo, mouse; conditions: B16F10/DX i.v. in C57BL/6 mice; TPT 2.0 mg/kg i.v. on day 1, 4, and 7; mean±SEM
Protocol: Amlexanox solution for injections was prepared according to the Example 4. B16F10/DX cell (2.0×10^5 cells per animal) were inoculated intravenously in female C57BL//6 mice (6-7 weeks old) and animals were then divided randomly into 4 groups (n=9 except for control group): 1) intact control (n=12, saline); 2) Amlexanox (100 mg/kg, daily p.o. administration); 3) TPT (2.0 mg/kg i.v. administration on day 1, 4, and 7); 5) Amlexanox (daily p.o. 100 mg/kg)+TPT (i.v. 2.0 mg/kg on day 1, 4, and 7). Intact control received oral administration with 10 ml/kg (volume/body weight) of saline, while Amlexanox was administrated orally and daily with a dose of 100 mg/kg in a volume of 10 ml/kg. The treatments were started from the day following the tumor cell implantation until the end of the protocol. However, TPT was administrated intravenously only on day 1, 4, and 7 after tumor implantation. The animal body weight was recorded as an index of treatment toxicity during the experiment.
The data in Table show metastasis formation in the lung in the mice implanted with B16F10/DX cells. The data are expressed as mean±SEM for the number of metastatic sites on the lung surface.

| Compound | Retained Amlexnox [1] | further results |
| --- | --- | --- |
| O=C1O[C@H]([C@@H](O)CO)C(O)=C1O [Ascorbic acid] | 99.5% |  |
| Cn1c(=O)c2c(ncn2C)n(C)c1=O [Caffeine] | 96.8% |  |
| COc1cccc2c1C(=O)c1c(O)c3c(c(O)c1C2=O)C[C@@](O)(C(=O)CO)C[C@@H]3O[C@H]1C[C@H](N)[C@H](O)[C@H](C)O1 [Dox, doxorubicin] |  | Lung Metastasis Number per Animal (CSML100 cells; Dox i.v. 3 mg/kg on day 1, 4, 7): 15.6 ± 2.66 |
| Cc1occc(=O)c1O [Maltol] | 99.6% |  |
| COC(=O)c1ccc(O)cc1 [Methyl 4-hydroxybenzoate] | 93.1% |  |
| CCCOC(=O)c1cc(O)c(O)c(O)c1 [Propyl galate] | 99.7% |  |
| CC[C@@]1(O)C(=O)OCc2c1cc1n(c2=O)Cc2cc3c(CN(C)C)c(O)ccc3nc2-1 [TPT, topotecan] |  | Lung Metastasis Number per Animal (CSML100 cells; TPT i.v. 3 mg/kg on day 1, 4, 7): 6.20 ± 1.32; Lung Metastasis Number per Animal (B16F10/DX cells): 88.0 ± 8.79 |
